Source: US20100209537A1, “Metal complexes with anticancer activity” (priority 2009, published 2010)

Legend:
[1] = Solubility in water and organic solvents; assay type: physicochemical
[2] = Stability at room temperature; assay type: physicochemical
[3] = tested on: ovarian cancer cell line A2780; assay: MTT assay, ovarian cancer cell line A2780; assay type: cell-based, human; conditions: n = 3, A2780
Method: MTT [3-(4,5-dimethylthiazol-2yl)-2,5-diphenyltetrazolium bromide] method:
MTT is used to measure the metabolic activity of viable cells. The assay is non-radioactive and can be performed entirely in a micro titer plate (MTP). It is suitable for measuring cell proliferation, cell viability or cytotoxicity. The reaction produces water-insoluble formazan salt that must be solubilized. Procedure involves culturing the cells in a 96-well micro titer plate, and then incubating them with MTT solution for approximately 2 hours. During incubation period, viable cells convert MTT to a water-insoluble formazan dye. The formazan dye in the MTP is solubilized and quantified with an ELISA plate reader. The absorbance directly correlates with the cell number. This can be applicable for adherent cells cultured in MTP.
Compounds were tested at concentrations of 3 and 30 μg/ml by MTT assay using the ovarian cancer cell line A2780.

SMILES | solubility in dimethylformamide and dimethylsulphoxide [1] | solubility in methanol and acetone [1] | solubility in water [1] | stability at room temperature [2] | Percent surviving cells of DMSO control (Mean) ([3]; 3 μg/ml) [%] | Percent surviving cells of DMSO control (Mean) ([3]; 30 μg/ml) [%]
Clc1nc2ccccc2nc1NN=Cc1ccccn1 [RM11, 2-pyridinecarbaldehyde-2-(3-chloro-2-quinoxalinyl)hydrazone] | fairly soluble | very slightly soluble | insoluble | stable | 0.4 | 0.7
Clc1nc2ccccc2nc1NN=Cc1ccccn1 [RM10, 2-pyridinecarbaldehyde-2-(3-chloro-2-quinoxalinyl)hydrazone] | fairly soluble | very slightly soluble | insoluble | stable | 4.6 | 1
COc1cccc(C=NNc2nc3ccccc3nc2Cl)c1O [RM5, 2-Hydroxy-3-methoxybenzaldehyde-1-(3-chloro-2-quinoxalinyl)-hydrazone] | fairly soluble | very slightly soluble | insoluble | stable | 0.6 | 0.2
Oc1ccc2ccccc2c1C=NNc1nc2ccccc2nc1Cl [RM7, 2-hydroxy-1-naphthaldehyde-1-(3-chloro-2-quinoxalinyl)hydrazone] | fairly soluble | very slightly soluble | insoluble | stable | 6.6 | 0.9
Oc1ccc2ccccc2c1C=NNc1nc2ccccc2nc1Cl [RM8, 2-hydroxy-1-naphthaldehyde-1-(3-chloro-2-quinoxalinyl)hydrazone] | fairly soluble | very slightly soluble | insoluble | stable | 0.3 | 0.1
Oc1ccccc1C=NNc1nc2ccccc2nc1Cl [RM2, 2-hydroxybenzaldehyde-1-(3-chloro-2-quinoxalinyl) hydrazone] | fairly soluble | very slightly soluble | insoluble | stable | 0.4 | 0.4
Clc1nc2ccccc2nc1NN=Cc1ccco1 [RM14, 2-furaldehyde-2-(3-chloro-2-quinoxalinyl)hydrazone] | fairly soluble | very slightly soluble | insoluble | stable | 13.2 | 0.7
